Laboratory results as given in article PMC11167047 (Cell Death Discovery, 2024).

How the values were obtained:
Assay in all cases: kinome screen (33PanQinase)
Assay type in all cases: biochemical
CSF1R = target: T1, CSF1R (Homo sapiens, UniProt P07333)
T1 construct: purchased Reaction Biology Europe GmbH (formerly ProQinase)
Method: (§1) The Kinome Screening was performed by Reaction Biology Europe GmbH (http://reactionbiology.com; Freiburg i. Br., Germany).

DCAMKL2 = target: T2, DCAMKL2 (Homo sapiens, UniProt Q8N568)
T2 construct: purchased Reaction Biology Europe GmbH (formerly ProQinase)
T2 sequence (Q8N568 1-766): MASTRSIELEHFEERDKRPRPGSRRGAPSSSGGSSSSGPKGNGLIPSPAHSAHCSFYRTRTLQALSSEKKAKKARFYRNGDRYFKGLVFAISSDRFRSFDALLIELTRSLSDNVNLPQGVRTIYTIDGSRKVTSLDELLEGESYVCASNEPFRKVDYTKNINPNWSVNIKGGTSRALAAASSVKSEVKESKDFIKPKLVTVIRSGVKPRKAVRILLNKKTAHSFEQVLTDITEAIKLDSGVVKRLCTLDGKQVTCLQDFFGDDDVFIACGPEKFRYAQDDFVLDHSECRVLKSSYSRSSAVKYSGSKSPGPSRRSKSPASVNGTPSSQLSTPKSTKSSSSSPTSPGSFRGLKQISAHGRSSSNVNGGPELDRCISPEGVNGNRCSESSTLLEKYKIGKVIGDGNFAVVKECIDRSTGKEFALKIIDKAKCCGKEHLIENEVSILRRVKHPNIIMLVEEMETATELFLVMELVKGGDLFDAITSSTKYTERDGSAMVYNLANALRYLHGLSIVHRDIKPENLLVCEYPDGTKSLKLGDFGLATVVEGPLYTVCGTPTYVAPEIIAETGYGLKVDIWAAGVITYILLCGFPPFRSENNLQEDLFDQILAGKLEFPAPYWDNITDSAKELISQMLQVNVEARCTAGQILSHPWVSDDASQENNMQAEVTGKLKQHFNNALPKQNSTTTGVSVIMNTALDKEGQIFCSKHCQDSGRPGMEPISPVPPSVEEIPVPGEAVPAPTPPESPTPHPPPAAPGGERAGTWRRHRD
Method: as §1

GRK7 = target: T3, GRK7 (Homo sapiens, UniProt Q8WTQ7)
T3 construct: purchased Reaction Biology Europe GmbH (formerly ProQinase)
T3 sequence (Q8WTQ7 1-553): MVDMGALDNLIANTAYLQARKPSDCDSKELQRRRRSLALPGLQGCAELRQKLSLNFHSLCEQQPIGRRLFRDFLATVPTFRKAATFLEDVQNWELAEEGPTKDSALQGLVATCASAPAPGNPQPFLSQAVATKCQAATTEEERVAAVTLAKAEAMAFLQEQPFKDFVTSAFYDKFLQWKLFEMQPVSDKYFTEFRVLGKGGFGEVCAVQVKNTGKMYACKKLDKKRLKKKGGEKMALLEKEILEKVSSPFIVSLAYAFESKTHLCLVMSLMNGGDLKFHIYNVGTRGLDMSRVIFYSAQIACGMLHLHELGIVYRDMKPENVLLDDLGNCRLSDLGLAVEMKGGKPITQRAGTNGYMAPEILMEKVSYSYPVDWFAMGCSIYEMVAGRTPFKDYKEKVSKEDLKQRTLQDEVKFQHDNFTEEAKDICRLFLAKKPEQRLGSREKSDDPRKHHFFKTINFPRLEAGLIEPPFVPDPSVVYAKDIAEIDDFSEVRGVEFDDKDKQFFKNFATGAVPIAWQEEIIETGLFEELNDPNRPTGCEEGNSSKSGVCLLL
Method: as §1

MATK = target: T4, MATK (Homo sapiens, UniProt P42679)
T4 construct: purchased Reaction Biology Europe GmbH (formerly ProQinase)
T4 sequence (P42679 1-507): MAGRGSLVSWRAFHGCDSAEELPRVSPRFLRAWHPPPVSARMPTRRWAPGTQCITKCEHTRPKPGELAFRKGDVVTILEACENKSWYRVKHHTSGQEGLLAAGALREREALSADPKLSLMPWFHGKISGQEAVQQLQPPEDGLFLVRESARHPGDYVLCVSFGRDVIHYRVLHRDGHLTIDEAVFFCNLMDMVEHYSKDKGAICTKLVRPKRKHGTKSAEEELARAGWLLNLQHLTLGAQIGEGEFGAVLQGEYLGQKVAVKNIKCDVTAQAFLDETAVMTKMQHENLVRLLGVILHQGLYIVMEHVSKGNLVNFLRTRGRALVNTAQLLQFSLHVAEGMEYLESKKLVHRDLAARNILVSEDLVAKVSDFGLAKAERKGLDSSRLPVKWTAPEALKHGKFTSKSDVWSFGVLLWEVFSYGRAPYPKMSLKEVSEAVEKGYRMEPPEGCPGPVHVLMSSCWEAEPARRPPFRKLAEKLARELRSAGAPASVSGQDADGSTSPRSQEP
Method: as §1

STK17A = target: T5, STK17A (Homo sapiens, UniProt Q9UEE5)
T5 construct: purchased Reaction Biology Europe GmbH (formerly ProQinase)
T5 sequence (Q9UEE5 1-414): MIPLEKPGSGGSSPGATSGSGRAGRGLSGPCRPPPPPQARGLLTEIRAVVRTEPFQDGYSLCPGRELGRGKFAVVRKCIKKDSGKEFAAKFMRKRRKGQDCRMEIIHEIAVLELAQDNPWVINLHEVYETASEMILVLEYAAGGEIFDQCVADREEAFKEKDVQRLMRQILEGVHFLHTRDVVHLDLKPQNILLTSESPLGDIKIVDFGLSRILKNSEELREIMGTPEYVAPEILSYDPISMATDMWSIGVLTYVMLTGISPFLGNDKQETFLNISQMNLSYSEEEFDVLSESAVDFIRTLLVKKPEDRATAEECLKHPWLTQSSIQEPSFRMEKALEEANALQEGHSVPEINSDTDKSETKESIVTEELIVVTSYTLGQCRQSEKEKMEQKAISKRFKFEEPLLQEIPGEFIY
Method: as §1

FYN = target: T6, FYN (Homo sapiens, UniProt P06241)
T6 construct: purchased Reaction Biology Europe GmbH (formerly ProQinase)
Method: as §1

CDK1/CycE1 = target: T7, CDK1/CycE1 (Homo sapiens, UniProt P06493)
T7 construct: purchased Reaction Biology Europe GmbH (formerly ProQinase)
Method: as §1

T6 sequence (P06241 whole entry): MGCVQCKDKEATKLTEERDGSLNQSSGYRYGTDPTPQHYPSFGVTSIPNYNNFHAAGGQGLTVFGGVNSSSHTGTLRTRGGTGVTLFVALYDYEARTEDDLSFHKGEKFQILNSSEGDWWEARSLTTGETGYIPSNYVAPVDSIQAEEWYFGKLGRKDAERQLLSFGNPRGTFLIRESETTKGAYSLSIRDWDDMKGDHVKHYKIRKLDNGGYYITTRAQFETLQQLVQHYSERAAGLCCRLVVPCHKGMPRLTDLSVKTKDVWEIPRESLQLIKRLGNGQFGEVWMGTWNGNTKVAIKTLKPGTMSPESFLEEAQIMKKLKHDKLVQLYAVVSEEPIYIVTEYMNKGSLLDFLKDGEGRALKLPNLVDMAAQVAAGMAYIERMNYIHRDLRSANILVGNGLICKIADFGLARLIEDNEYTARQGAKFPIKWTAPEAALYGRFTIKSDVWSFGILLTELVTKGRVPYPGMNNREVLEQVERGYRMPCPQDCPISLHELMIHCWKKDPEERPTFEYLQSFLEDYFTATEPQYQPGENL
T7 sequence (P06493 whole entry): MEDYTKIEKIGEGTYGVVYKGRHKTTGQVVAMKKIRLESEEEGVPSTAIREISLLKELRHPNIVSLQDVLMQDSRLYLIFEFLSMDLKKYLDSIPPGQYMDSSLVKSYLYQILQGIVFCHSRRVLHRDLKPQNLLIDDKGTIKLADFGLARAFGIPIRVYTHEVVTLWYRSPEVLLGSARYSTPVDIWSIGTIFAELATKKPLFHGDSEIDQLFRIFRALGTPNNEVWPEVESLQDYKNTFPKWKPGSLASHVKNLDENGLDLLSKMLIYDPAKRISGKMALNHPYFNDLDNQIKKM
T7 sequence (P24864 whole entry partner): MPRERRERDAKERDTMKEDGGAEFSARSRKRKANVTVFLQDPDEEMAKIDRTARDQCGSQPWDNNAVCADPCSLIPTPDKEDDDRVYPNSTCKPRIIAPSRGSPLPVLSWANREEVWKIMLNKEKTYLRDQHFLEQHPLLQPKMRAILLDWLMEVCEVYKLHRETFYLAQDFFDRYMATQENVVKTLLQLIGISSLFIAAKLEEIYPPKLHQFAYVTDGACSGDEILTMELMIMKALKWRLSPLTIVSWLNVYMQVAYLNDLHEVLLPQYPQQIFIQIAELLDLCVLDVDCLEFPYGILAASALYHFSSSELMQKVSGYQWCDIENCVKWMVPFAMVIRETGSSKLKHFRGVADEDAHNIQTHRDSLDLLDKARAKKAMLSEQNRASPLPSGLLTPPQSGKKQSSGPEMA
T1 sequence (P07333 20-972): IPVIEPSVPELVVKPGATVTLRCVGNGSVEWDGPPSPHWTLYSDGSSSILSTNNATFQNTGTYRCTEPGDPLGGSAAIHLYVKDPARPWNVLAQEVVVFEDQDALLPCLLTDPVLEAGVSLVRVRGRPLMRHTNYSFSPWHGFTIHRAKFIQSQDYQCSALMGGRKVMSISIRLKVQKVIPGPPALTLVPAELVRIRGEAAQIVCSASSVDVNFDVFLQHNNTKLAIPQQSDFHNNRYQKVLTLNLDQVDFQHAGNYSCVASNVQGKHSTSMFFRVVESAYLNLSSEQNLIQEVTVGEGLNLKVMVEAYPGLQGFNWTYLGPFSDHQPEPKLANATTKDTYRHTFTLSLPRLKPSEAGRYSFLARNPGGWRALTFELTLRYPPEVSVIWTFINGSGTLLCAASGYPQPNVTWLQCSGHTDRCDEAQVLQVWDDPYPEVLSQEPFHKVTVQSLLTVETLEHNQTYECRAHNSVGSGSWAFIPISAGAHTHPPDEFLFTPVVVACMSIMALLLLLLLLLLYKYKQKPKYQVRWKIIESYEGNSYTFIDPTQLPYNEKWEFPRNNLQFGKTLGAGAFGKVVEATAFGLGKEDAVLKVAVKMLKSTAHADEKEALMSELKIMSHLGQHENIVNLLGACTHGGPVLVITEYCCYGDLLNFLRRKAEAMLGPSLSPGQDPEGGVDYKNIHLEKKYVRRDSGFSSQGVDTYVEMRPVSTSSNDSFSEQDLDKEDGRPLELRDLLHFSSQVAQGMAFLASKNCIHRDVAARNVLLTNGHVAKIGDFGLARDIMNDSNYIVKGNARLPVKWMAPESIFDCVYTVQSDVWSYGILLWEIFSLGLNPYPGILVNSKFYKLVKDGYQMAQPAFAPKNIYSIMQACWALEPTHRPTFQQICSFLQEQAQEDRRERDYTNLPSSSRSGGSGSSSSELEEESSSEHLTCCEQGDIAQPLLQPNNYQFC

What does the source list for `COc1ccnc2[nH]cc(-c3cc(N)nc(N)c3)c12` [meriolin 16]?
residual kinase activity (CSF1R; 0.03 µM): 90 % of control; residual kinase activity (CSF1R; 0.3 µM): 88 % of control; residual kinase activity (DCAMKL2; 0.03 µM): 92 % of control; residual kinase activity (DCAMKL2; 0.3 µM): 85 % of control; residual kinase activity (GRK7; 0.03 µM): 105 % of control; residual kinase activity (GRK7; 0.3 µM): 78 % of control; residual kinase activity (MATK; 0.03 µM): 107 % of control; residual kinase activity (MATK; 0.3 µM): 90 % of control; residual kinase activity (STK17A; 0.03 µM): 83 % of control; residual kinase activity (STK17A; 0.3 µM): 23 % of control; residual kinase activity (FYN; 0.03 µM): 93 % of control; residual kinase activity (FYN; 0.3 µM): 69 % of control; residual kinase activity (CDK1/CycE1; 0.03 µM): 42 % of control; residual kinase activity (CDK1/CycE1; 0.3 µM): 8 % of control

How did the residual kinase activity (CSF1R; 0.3 µM) turn out when `c1ccc(CNc2cc(-c3c[nH]c4ncccc34)ccn2)cc1` [meriolin 36] was run?
The residual kinase activity was 33 % of control.

What about the residual kinase activity (CSF1R; 3 µM) of the same molecule?
Its residual kinase activity is 14 % of control.

And the residual kinase activity (DCAMKL2; 0.3 µM)?
The residual kinase activity was 91 % of control.

And the residual kinase activity (DCAMKL2; 3 µM)?
The residual kinase activity was 81 % of control.

And the residual kinase activity (GRK7; 0.3 µM)?
The residual kinase activity was 94 % of control.

What about the residual kinase activity (GRK7; 3 µM) of the same molecule?
The residual kinase activity was 48 % of control.

And the residual kinase activity (MATK; 0.3 µM)?
Its residual kinase activity is 134 % of control.

And the residual kinase activity (MATK; 3 µM)?
Its residual kinase activity is 94 % of control.

And the residual kinase activity (STK17A; 0.3 µM)?
Its residual kinase activity is 23 % of control.

And the residual kinase activity (STK17A; 3 µM)?
Its residual kinase activity is 4 % of control.

What about the residual kinase activity (FYN; 0.3 µM) of the same molecule?
The residual kinase activity was 22 % of control.

What about the residual kinase activity (FYN; 3 µM) of the same molecule?
The residual kinase activity was 3 % of control.

What about the residual kinase activity (CDK1/CycE1; 0.3 µM) of the same molecule?
Its residual kinase activity is 2 % of control.

And the residual kinase activity (CDK1/CycE1; 3 µM)?
Its residual kinase activity is 0 % of control.
